US10472635B2, “Methods of treating brain edema” (priority 2015, dated 2019)
Read-outs that look alike come from different tables or passages of the source.

Key:
KCC2 = target: T1, KCC2 (Homo sapiens, UniProt Q9H2X9); conditions: cited from earlier work
T1 sequence (Q9H2X9 1-1139): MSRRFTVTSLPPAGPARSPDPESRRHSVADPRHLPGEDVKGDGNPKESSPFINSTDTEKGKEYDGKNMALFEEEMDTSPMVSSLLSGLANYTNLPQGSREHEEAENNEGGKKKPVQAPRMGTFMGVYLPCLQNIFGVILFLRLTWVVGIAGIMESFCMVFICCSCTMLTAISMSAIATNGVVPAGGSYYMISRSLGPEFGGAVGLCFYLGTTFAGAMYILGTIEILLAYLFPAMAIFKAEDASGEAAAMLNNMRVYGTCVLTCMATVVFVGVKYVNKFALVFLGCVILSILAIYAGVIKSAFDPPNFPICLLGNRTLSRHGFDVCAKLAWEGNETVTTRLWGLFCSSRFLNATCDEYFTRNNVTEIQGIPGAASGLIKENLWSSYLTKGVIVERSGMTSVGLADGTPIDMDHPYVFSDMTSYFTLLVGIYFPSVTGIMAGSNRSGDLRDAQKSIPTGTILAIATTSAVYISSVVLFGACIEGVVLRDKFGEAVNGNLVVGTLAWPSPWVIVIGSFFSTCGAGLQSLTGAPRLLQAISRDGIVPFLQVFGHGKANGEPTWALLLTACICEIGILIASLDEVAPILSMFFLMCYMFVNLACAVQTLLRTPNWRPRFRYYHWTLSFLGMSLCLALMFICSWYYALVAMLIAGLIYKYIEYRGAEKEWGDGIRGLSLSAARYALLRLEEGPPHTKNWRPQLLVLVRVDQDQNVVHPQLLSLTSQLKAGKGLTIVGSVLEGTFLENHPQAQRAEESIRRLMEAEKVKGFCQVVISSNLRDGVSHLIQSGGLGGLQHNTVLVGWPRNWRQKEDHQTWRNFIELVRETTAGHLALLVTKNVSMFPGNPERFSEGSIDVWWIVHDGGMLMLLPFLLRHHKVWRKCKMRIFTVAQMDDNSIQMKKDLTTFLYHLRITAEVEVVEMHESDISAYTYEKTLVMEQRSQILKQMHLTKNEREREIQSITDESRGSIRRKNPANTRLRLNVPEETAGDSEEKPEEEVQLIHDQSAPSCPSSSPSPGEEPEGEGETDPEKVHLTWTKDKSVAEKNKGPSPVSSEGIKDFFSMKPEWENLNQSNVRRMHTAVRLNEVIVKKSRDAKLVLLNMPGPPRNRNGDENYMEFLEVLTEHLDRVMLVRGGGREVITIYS

NKCC1 = target: T2, NKCC1 (Homo sapiens, UniProt P55011); conditions: cited from earlier work
T2 sequence (P55011 1-1212): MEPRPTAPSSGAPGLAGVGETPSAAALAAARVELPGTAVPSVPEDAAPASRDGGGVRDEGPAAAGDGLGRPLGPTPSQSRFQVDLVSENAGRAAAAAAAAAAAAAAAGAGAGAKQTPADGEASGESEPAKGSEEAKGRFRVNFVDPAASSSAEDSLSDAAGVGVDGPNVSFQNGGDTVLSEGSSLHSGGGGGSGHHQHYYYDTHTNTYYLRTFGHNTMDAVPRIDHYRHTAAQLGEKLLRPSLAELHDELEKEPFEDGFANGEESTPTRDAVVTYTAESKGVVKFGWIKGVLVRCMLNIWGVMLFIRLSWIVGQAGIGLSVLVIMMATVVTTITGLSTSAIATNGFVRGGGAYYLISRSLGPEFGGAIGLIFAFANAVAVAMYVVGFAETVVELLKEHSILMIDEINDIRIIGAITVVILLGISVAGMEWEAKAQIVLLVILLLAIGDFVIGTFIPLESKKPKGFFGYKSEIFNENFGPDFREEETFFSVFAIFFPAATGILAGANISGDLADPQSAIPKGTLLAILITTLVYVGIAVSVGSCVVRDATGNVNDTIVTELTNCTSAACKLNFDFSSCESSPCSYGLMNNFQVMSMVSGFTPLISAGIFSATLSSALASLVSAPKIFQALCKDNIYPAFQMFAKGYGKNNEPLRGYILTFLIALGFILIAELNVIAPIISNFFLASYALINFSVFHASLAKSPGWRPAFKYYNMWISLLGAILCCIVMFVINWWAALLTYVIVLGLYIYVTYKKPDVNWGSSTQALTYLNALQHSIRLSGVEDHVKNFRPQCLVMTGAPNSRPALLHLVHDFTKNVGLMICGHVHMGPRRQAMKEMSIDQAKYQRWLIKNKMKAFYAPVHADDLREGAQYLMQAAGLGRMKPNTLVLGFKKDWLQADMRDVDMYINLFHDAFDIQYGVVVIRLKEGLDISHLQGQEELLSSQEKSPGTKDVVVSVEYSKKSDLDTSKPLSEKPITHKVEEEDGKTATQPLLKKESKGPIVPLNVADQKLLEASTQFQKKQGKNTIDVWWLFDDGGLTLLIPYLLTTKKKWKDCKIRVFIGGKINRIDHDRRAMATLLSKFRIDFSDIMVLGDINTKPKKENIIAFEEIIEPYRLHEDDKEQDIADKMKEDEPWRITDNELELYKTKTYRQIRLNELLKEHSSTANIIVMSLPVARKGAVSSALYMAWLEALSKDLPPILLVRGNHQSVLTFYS

Pannexins, Connexins = conditions: cited from earlier work
Maxi-Anion Channel = conditions: cited from earlier work
[1] = system: cortical neurons in brain slices; assay: Neuronal swelling imaging assay in brain slices (cross sectional area of CoroNa-stained soma, two-photon); format: cell-based, rat; conditions: for magnitude of neuronal swelling: veratridine-induced, blockers present, without vs with pre-applied picrotoxin (100 μM)
rat hippocampal slices = assay: LDH release cell death assay in hippocampal slices; format: cell-based; conditions: for effect on veratridine-induced cell death (LDH release): 50 μM veratridine
[2] = system: voltage-dependent Cl^− current in layer 4 cortical neurons; assay: Whole-cell voltage clamp of depolarization-activated Cl- current; format: cell-based, rat; conditions: depolarization to −20 mV or greater; cocktail of channel blockers; GlyH-101 by dialysis
Description: Electrophysiology: Whole-cell recordings were performed in the presence of antagonists of GABAA (10 μM picrotoxin), AMPA/kainite (10 μM 6-cyano-7-nitoquinoxaline-2,3-dione—CNQX), and NMDA (2R-amino-5-phosphonovaleric acid—APV) receptors. 60 μM cadmium, 50 μM nickel and 100 μM 4AP (4-aminopyridine) were used to block voltage-gated calcium channels and A-type potassium channels. Whole-cell voltage-clamp recordings from cortical neurons were carried out at room temperature while the recording chamber was perfused with ACSF at 1-1.5 ml min-1. Recordings were made using a MultiClamp 700B amplifier controlled by Clampex 10.2 via a Digidata 1440A data acquisition system with 3-5M ? glass electrodes. The pipette solution containing (in m ? ): 108 CsCl, 8 TEA-Cl, 8 NaGluc, 1 CsEGTA, 4 K-ATP, 0.3 Na-GTP, 10 Hepes, 2MgCl2 (pH 7.2 with CsOH, 286 mosmol 1-1). Normal ACSF contained (in mM): 126 NaCl, 26 NaHCO3, 10 glucose, 2 MgCl2, 1.25 NaH2PO4, 2.5 KCl, 2.0 CaCl2 (pH 7.25, 310 mosmol 1-1). NaCl was replaced with 126 mM Na-isethionate in the low-chloride ACSF. Recordings where the series resistance varied more than 10% were rejected. Data were analyzed with Clampfit 10.0.
The opening of Na^+ permeable channels causes both [Na^+]i accumulation and neuronal depolarization. […] However progressive accumulation of extracellular K^+ could lead to further depolarization of the membrane. […]

CaCC = conditions: cited from earlier work
[3] = system: neuronal [Na^+]i in brain slices; assay: Neuronal [Na+]i by CoroNa Green fluorescence / two-photon FLIM; format: cell-based, rat
VRAC = conditions: cited from earlier work
CLC-2 = CLC-2 (Homo sapiens, UniProt P51788); conditions: cited from earlier work
CLC-2, sequence (P51788 whole entry): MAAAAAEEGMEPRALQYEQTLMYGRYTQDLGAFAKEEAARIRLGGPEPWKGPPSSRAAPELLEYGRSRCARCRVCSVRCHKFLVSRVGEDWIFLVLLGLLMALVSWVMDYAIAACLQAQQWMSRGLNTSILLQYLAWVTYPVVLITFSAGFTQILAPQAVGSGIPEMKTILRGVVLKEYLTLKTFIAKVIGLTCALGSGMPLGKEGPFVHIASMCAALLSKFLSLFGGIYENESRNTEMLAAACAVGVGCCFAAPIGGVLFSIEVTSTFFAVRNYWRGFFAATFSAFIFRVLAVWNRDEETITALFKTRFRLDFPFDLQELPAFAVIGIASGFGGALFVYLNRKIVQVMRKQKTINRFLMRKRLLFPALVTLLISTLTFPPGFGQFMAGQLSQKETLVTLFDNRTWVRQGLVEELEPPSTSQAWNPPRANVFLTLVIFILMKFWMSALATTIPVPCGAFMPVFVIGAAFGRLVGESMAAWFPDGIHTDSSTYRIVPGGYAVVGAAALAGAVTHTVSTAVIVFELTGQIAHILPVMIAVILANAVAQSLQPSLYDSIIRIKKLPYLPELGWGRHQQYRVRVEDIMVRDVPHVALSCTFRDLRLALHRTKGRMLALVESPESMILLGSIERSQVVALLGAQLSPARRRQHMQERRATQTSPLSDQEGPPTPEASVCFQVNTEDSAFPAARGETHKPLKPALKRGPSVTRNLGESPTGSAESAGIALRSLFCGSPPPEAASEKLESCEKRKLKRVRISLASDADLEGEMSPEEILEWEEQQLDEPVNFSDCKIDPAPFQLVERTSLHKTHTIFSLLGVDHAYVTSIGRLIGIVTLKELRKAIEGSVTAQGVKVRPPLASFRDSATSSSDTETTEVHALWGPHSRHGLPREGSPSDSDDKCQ

[4] = 22-24 °C, antagonist bath applied and in puffing pipette, DIDS 250 μM, NPPB 200 μM, TTX 1 μM
[5] = pressure ejection, Cd2+, CNQX, picrotoxin present, d-APV with veratridine, TTX with NMDA

CCCCNc1cc(C(=O)O)cc(S(N)(=O)=O)c1Oc1ccccc1 [Bumetanide, bumetanide]
Ki (KCC2): 25 to 50 µM | Ki (NKCC1): ~0.1 µM

CC1(C)[C@@H](OC(=O)CCC(=O)O)CC[C@]2(C)[C@H]3C(=O)C=C4[C@@H]5C[C@@](C)(C(=O)O)CC[C@]5(C)CC[C@@]4(C)[C@]3(C)CC[C@@H]12 [CBX, carbenoxelone]
concentration (antagonist sensitivity of channel/transporter) (Pannexins, Connexins): 100 µM

[Gd+3] [Gd^3+]
concentration (antagonist sensitivity of channel/transporter) (Maxi-Anion Channel): 30 to 50 µM

O=C(CNc1ccc2ccccc2c1)N/N=C/c1cc(Br)c(O)c(Br)c1O [GlyH-101]
effect on veratridine-induced neuronal swelling [1, 4]: profoundly inhibited | effect on veratridine-induced cell death (LDH release) (rat hippocampal slices): profoundly inhibited | effect on non-inactivating Cl- current elicited by depolarization [2]: inhibit

O=C(O)c1cccnc1Nc1cccc(C(F)(F)F)c1 [NFA, niflumic acid]
concentration (antagonist sensitivity of channel/transporter) (CaCC): 50 to 100 µM

CN[C@H](CC(=O)O)C(=O)O [NMDA, N-Methyl-D-aspartic acid]
change in neuronal [Na+]i on application [3, 5]: significant increase | neuronal cross sectional area after NMDAR activation ([1]; extracellular Ca2+ free solution (0 mM Ca2+, 2 mM EGTA), TTX, Cd2+, CNQX, picrotoxin present): 161.60±10.55 % of baseline | neuronal cross sectional area after NMDAR activation ([1]; extracellular Na+ replaced with NMDG (152 mM to 26 mM), normal Ca2+): 86.7 % of baseline | change in neuronal cell volume on application [1, 5]: increase in neuronal cell volume | LDH release (cell death) on application (rat hippocampal slices; 15 min application, LDH after 90 min, veratridine 50 μM, NMDA 100 μM in 0 mM Ca2+, 2 mM EGTA, CNQX, picrotoxin, Cd2+ present): rapid and significant increase

O=C(O)c1cc([N+](=O)[O-])ccc1NCCCc1ccccc1 [NPPB]
concentration (antagonist sensitivity of channel/transporter) (Maxi-Anion Channel): 100 µM | effect on veratridine-induced neuronal swelling [1, 4]: no protection | concentration (antagonist sensitivity of channel/transporter) (CaCC): 100 µM | concentration (antagonist sensitivity of channel/transporter) (VRAC): 40 to 100 µM | effect on veratridine-induced cell death (LDH release) (rat hippocampal slices): no effect | effect on NMDA-induced cell death (LDH release), Ca2+-independent (rat hippocampal slices; NMDA in Ca2+ free extracellular solution): blocked by DIDS but not NPPB

NC1=N[C@H](O)[C@H]2[C@H]3O[C@]4(O)O[C@@H]([C@@H](O)[C@@]2(N1)[C@@H]4O)[C@]3(O)CO [TTX, Tetrodotoxin]
effect on veratridine-induced [Na+]i increase [3]: blocked | effect on veratridine-induced neuronal swelling [1]: blocked

[Zn] [Zinc]
concentration (antagonist sensitivity of channel/transporter) (CLC-2): 100 µM

N[C@H](CCCP(=O)(O)O)C(=O)O [d-APV, 2R-amino-5-phosphonovaleric acid]
effect on NMDA-induced [Na+]i increase ([3]; CoroNa signal, d-APV 100 μM): blocked | effect on NMDA-induced neuronal swelling ([1]; DIDS 250 μM, 500 μM, 1 mM, d-APV 100 μM): blocked

COc1ccc(C(=O)O[C@H]2CC[C@@]3(C)[C@@H]4CC[C@H]5[C@]6(O)C[C@H](O)[C@@]7(O)[C@@H](CN8C[C@@H](C)CC[C@H]8[C@@]7(C)O)[C@]6(O)C[C@@]53O[C@]24O)cc1OC [veratridine]
[Na+]i (calibrated value, CoroNa FLIM) ([3]; throughout veratridine application): approximately 94.46±2.14 mM | magnitude of neuronal swelling [1]: 161.7%

picrotoxin
magnitude of neuronal swelling [1]: 146.9%
